{"source": "patent US12043602B2", "about": "“Fendiline derivatives” (The Board of Regents of the University of Texas System, priority 2019, dated 2024)", "key": {"[1]": {"biological_target": "T1, mGFP-K-RASG12V (Homo sapiens (Human), UniProt P01116, G12V)", "test": "K-Ras mislocalization assay (confocal microscopy, Manders coefficient)", "format": "cell-based", "parameters": "key to Emax: Manders coefficient: fraction of mCherry-CAAX co-localizing with GFP-K-Ras", "conditions": "MDCK cells; for IC50: 48 h treatment, read-out: IC50 (μM), KRASG12V mislocalization; for Emax: maximal effect, Manders coefficient, 48 h", "how_it_was_run": "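Readout is the Manders coefficient: share of mCherry-CAAX overlapping mGFP-K-RASG12V in confocal images, proportional to K-Ras mislocalization. Stable MDCK co-expressing lines were exposed 48 h to various drug concentrations or 0.1% DMSO vehicle, then paraformaldehyde-fixed.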"}, "[2]": {"system": "MDCK cells co-expressing GFP-K-RASG12V and mCherry-CAAX"}, "[3]": {"biological_target": "HRAS (Homo sapiens (Human), UniProt P01112)", "conditions": "background statement; cited from earlier work"}, "[4]": {"biological_target": "NRAS (Homo sapiens (Human), UniProt P01111)", "conditions": "background statement; cited from earlier work"}, "[5]": {"system": "BxPC-3 (WT) pancreatic tumor cells", "test": "CyQUANT proliferation assay", "format": "cell-based", "conditions": "Table 11, pancreatic; read-out: IC50 (μM) BxPC-3 (WT)", "method": "(§1) Madine Darby Canine Kidney epithelial cells (MDCK) stably co-expressing mGFP-tagged full length oncogenic mutant K-Ras (GFP—K-RASG12V) or mGFP-LactC2 (peptide probe for phosphatidylserine) and mCherry-tagged to the amino acids 179-189 of H-RasC181S, C184S (mCherry-CAAX, localizes primarily to endomembranes) were grown in DMEM-high glucose/sodium pyruvate/10% FBS. The medium was supplemented with 1× Penicillin/Streptomycin for fluorescence microscopy assays, to avoid any microbial contamination from the test compounds added. KLE and Hec50 cells were maintained in DMEM-F-12 medium supplemented with 10% FBS. Hec-1A and Hec-1B cells were grown in McCoy's 5a medium supplemented with 10% FBS. ESS-1 cells were grown in RPMI 1640 medium supplemented with 20% FBS. MPanc96 cells were grown in DMEM supplemented with 10% FBS, MiaPaCa-2 cells in DMEM supplemented with 10% FBS and 2.5% horse serum and all other cell lines were grown in RPMI 1640 supplemented with 10% FBS. All cancer cell media were supplemented with ×Penicillin/Streptomycin. All cell lines were grown at 37° C. with 5% CO2.\n(§2) Cells were seeded in 96-well plates. After 24 h, fresh growth medium supplemented with 0.1% vehicle (DMSO), or various concentrations of drugs was added and cells were grown for 72 h. Cell numbers were quantified using the CyQUANT® Cell Proliferation Assay Kit (Molecular Probes, Life Technologies), according to the manufacturer's protocol. Fluorescence measurement was used as a measure of live cell number."}, "[6]": {"system": "MiaPaCa-2 (Mut) pancreatic tumor cells", "test": "CyQUANT proliferation assay", "format": "cell-based", "conditions": "Table 11, pancreatic; read-out: IC50 (μM) MiaPaCa-2 (Mut)", "method": "as §1, §2"}, "[7]": {"system": "MOH (Mut) pancreatic tumor cells", "test": "CyQUANT proliferation assay", "format": "cell-based", "conditions": "Table 11, pancreatic; read-out: IC50 (μM) MOH (Mut)", "method": "as §1, §2"}, "[8]": {"system": "MPanc96 (Mut) pancreatic tumor cells", "test": "CyQUANT proliferation assay", "format": "cell-based", "conditions": "Table 11, pancreatic; read-out: IC50 (μM) MPanc96 (Mut)", "method": "as §1, §2"}, "[9]": {"system": "NCI H1975 (WT) lung tumor cells", "test": "CyQUANT proliferation assay", "format": "cell-based", "parameters": "key to IC50 proliferation NCI H1975 (WT): NE—Not efficacious", "method": "as §1, §2"}, "[10]": {"system": "NCI H522 (WT) lung tumor cells", "test": "CyQUANT proliferation assay", "format": "cell-based", "parameters": "key to IC50 proliferation NCI H522 (WT): NE—Not efficacious", "method": "as §1, §2"}, "[11]": {"system": "CaCO-2 (WT) colon tumor cells", "test": "CyQUANT proliferation assay", "format": "cell-based", "conditions": "Table 11, colon; read-out: IC50 (μM) Caco-2 (WT)", "method": "as §1, §2"}, "[12]": {"system": "Hec1A (Mut) endometrial tumor cells", "test": "CyQUANT proliferation assay", "format": "cell-based", "conditions": "Table 11, endometrial; read-out: IC50 (μM) Hec1A (Mut)", "method": "as §1, §2"}, "[13]": {"system": "Hec1B (Mut) endometrial tumor cells", "test": "CyQUANT proliferation assay", "format": "cell-based", "conditions": "Table 11, endometrial; read-out: IC50 (μM) Hec1B (Mut)", "method": "as §1, §2"}, "[14]": {"system": "NCI-H1299 (WT) lung tumor cells", "test": "CyQUANT proliferation assay", "format": "cell-based", "conditions": "Table 11, lung; read-out: IC50 (μM) NCI H1299 (WT)", "method": "as §1, §2"}, "[15]": {"system": "SK-CO-1 (Mut) colon tumor cells", "test": "CyQUANT proliferation assay", "format": "cell-based", "conditions": "Table 11, colon; read-out: IC50 (μM) SK-CO-1 (Mut)", "method": "as §1, §2"}, "[16]": {"system": "NCI-H23 (Mut) lung tumor cells", "test": "CyQUANT proliferation assay", "format": "cell-based", "conditions": "Table 11, lung; read-out: IC50 (μM) NCI H23 (Mut)", "method": "as §1, §2"}, "[17]": {"system": "Ishikawa (WT) endometrial tumor cells", "test": "CyQUANT proliferation assay", "format": "cell-based", "parameters": "key to IC50 proliferation Ishikawa (WT): NE—Not efficacious", "method": "as §1, §2"}, "[18]": {"biological_target": "T1, mGFP-K-RASG12V", "conditions": "versus compound 6; background statement; cited from earlier work"}, "[19]": {"system": "mutant KRAS expressing cancer cells", "conditions": "at 30 μM; background statement; cited from earlier work"}, "[20]": {"system": "MDCK cells co-expressing GFP-K-RASG12V and mCherry-CAAX", "test": "Cytotoxicity in mislocalization screen (death of all cells in well)", "conditions": "drug caused death of all cells in well at 30 μM"}, "[21]": {"system": "ESS-1 (WT) endometrial tumor cells", "test": "CyQUANT proliferation assay", "format": "cell-based", "parameters": "key: NE—Not efficacious", "conditions": "72 h", "method": "as §1, §2"}}, "note": "Where two headings read alike, the source gives them in different places."}
{"smiles": "C[C@@H](NCCC(c1ccccc1)c1ccccc1)c1ccccc1", "note": "[AVA08, R-Fendiline, reference compound]", "values": [{"measurement": "IC50", "setting": "[1]", "result": 5.59, "unit": "µM"}, {"measurement": "Emax", "setting": "[1]", "result": 0.811}, {"measurement": "Cytotoxic at 30 μM", "setting": "[2]", "result": "Yes"}, {"measurement": "effect on the PM localization of HRAS", "setting": "[3]", "result": "no effect"}, {"measurement": "effect on the PM localization of NRAS", "setting": "[4]", "result": "no effect"}]}
{"smiles": "COc1ccc([C@@H](C)N(CC=C(c2ccccc2)c2ccccc2)CC=C(c2ccccc2)c2ccccc2)cc1", "note": "[Compound 7, reference compound]", "values": [{"measurement": "IC50", "setting": "[1]", "result": 0.5, "unit": "µM"}, {"measurement": "Emax", "setting": "[1]", "result": "0.74 ± 0.03"}, {"measurement": "IC50", "setting": "[5]", "result": "> 30", "unit": "µM"}, {"measurement": "IC50", "setting": "[6]", "result": "> 30", "unit": "µM"}, {"measurement": "IC50", "setting": "[7]", "result": "> 30", "unit": "µM"}, {"measurement": "IC50", "setting": "[8]", "result": "> 30", "unit": "µM"}, {"measurement": "IC50", "setting": "[9]; Table 11, lung", "result": "> 30", "unit": "µM"}, {"measurement": "IC50", "setting": "[10]; Table 11, lung, read-out: IC50 (μM) NCI H522 (WT)", "result": "> 30", "unit": "µM"}, {"measurement": "IC50", "setting": "[11]", "result": "> 30", "unit": "µM"}, {"measurement": "IC50", "setting": "[12]", "result": "> 30", "unit": "µM"}, {"measurement": "IC50", "setting": "[13]", "result": "> 30", "unit": "µM"}, {"measurement": "IC50", "setting": "[14]", "result": "> 30", "unit": "µM"}, {"measurement": "IC50", "setting": "[15]", "result": "> 30", "unit": "µM"}, {"measurement": "IC50", "setting": "[16]", "result": "> 30", "unit": "µM"}, {"measurement": "IC50", "setting": "[17]; Table 11, endometrial, read-out: IC50 (μM) Ishikawa (WT)", "result": "> 30", "unit": "µM"}, {"measurement": "fold increased potency", "setting": "[18]", "result": 10, "unit": "fold"}, {"measurement": "capability to kill mutant KRAS expressing cancer cells", "setting": "[19]", "result": "no capability to kill"}, {"measurement": "Cytotoxic at 30 μM", "setting": "[20]", "result": "did not show any cytotoxic and No"}]}
{"smiles": "COc1ccc([C@@H](C)N(CC=C(c2ccccc2)c2ccccc2)CCN2CC2)cc1", "note": "[NY0438, (R)-N-(2-(aziridin-1-yl)ethyl)-N-(1-(4-methoxyphenyl)ethyl)-3,3-diphenylprop-2-en-1-amine]", "values": [{"measurement": "IC50", "setting": "[1]", "result": 5.1, "unit": "µM"}, {"measurement": "Emax", "setting": "[1]", "result": 0.754}, {"measurement": "Cytotoxic at 30 μM", "setting": "[2]", "result": "No"}]}
{"smiles": "CN1CCN(CCN(CC=C(c2ccccc2)c2ccccc2)C2(c3ccccc3)CC2)CC1", "note": "[NY0443, N-(3,3-diphenylallyl)-N-(2-(4-methylpiperazin-1-yl)ethyl)-1-phenylcyclopropanamine]", "values": [{"measurement": "IC50", "setting": "[1]", "result": 0.91, "unit": "µM"}, {"measurement": "IC50 proliferation NCI H1975 (WT)", "setting": "[9]; 72 h", "result": "NE"}, {"measurement": "IC50 proliferation NCI H522 (WT)", "setting": "[10]; 72 h", "result": "NE"}, {"measurement": "IC50 proliferation ESS-1 (WT)", "setting": "[21]", "result": "NE"}, {"measurement": "IC50 proliferation Ishikawa (WT)", "setting": "[17]; 72 h", "result": "NE"}, {"measurement": "Cytotoxic at 30 μM", "setting": "[20]", "result": "Yes"}]}
